Measurements published in patent US20100226919A1, “Antitumoral Treatments” (Pharma Mar, S.A., priority 2007, published 2010).
pIC50: −log10 of the molar value. Read-outs that look alike come from different tables or passages of the source.

Legend:
H460 cells = conditions: read-out: IC50 (50% cell growth inhibition); H460, 72 h exposure; resistant cell lines
Source text: (§1) Nine human NSCLC cell lines that were characterized for EGFR, Ras, and p53 gene expression and sensitivity to a variety of antitumor agents (paclitaxel, premetrexed, erlotinib, etc.) were used as models to examine the cell sensitivity to PM02734 trifluoroacetate salt. These NSCLC cell lines are the following: H322, A549, H661, H1299, H1975 with L858R and T790M EGFR double mutation, H358, H460, H1650 with L858R EGFR mutation, and H3255 with […]. […] H3255 cell line is a gift from Dr. Pasi A. Jänne (Dana-Farber Cancer Institute, Boston Mass.).
(§2) Exponentially growing cells (1×10^5/ml) were plated in 96-well plates and allowed to attach overnight. Cells were exposed to various concentrations of PM02734 trifluoroacetate salt at 37° C. for 72 hours.
(§3) H322, A549, H1299 and H460 cells were plated in 96-well plates as described above. […] Enzyme Regul. […] The synergistic effects (CI index) were analyzed by software CalcuSyn.

A549 cells = conditions: read-out: IC50 (50% cell growth inhibition); A549, 72 h exposure; range given for four highly sensitive cell lines
Source text: as §1, §2, §3

H322 cells [1] = conditions: read-out: IC50 (50% cell growth inhibition); H322, 72 h exposure; range given for four highly sensitive cell lines
Source text: as §1, §2, §3

H1299 cells = conditions: read-out: IC50 (50% cell growth inhibition); H1299, 72 h exposure; range given for two cell lines of intermediate sensitivity
Source text: as §1, §2, §3

H1975 cells = conditions: read-out: IC50 (50% cell growth inhibition); H1975 (double EGFR mutant), 72 h exposure; range given for two cell lines of intermediate sensitivity
Source text: as §1, §2

H3255 cells [2] = conditions: read-out: IC50 (50% cell growth inhibition); H3255 (EGFR mutant), 72 h exposure; range given for four highly sensitive cell lines
Source text: as §1, §2

H661 cells = conditions: read-out: IC50 (50% cell growth inhibition); H661, 72 h exposure; range given for four highly sensitive cell lines
Source text: as §1, §2

H358 cells = conditions: read-out: IC50 (50% cell growth inhibition); H358, 72 h exposure; resistant cell lines
Source text: as §1, §2

H1650 cells = conditions: read-out: IC50 (50% cell growth inhibition); H1650 (EGFR mutant), 72 h exposure; resistant cell lines
Source text: as §1, §2

[3] = system: human A549 NSCLC cell line; experiment: A549 subcutaneous xenograft model in nude mice; format: in vivo; conditions: PM02734 0.1 mg/kg i.v. 3 times per week for 2 weeks; erlotinib 50 mg/kg p.o. 5 times per week for 2 weeks; p<0.001
Description: PM02734 was administered in its trifluoroacetate salt using water for injection as vehicle. Erlotinib was administered using sterile water as vehicle.
Nude mice (NUR-NU-F-M, female, 5-6 weeks old, Taconic Farm, Germantown N.Y.) were subcutaneously implanted with the human A549 NSCLC cell line (4.5×10^6 cells/mouse). Seven days later, mice were randomly divided into 4 groups with 5 mice per group. One group of mice received the combination treatment (PM02734: 0.1 mg/kg×3 times per week (on days 1, 3, and 5) for 2 weeks, i.v.; erlotinib: 50 mg/kg×5 times per week (on days 1, 2, 3, 4, and 5) for 2 weeks, p.o.). In this group erlotinib was given first followed two hours later by the administration of PM02734. The other groups were treated with PM02734 alone (0.1 mg/kg×3 times per week (on days 1, 3, and 5) for 2 weeks, i.v.), erlotinib alone (50 mg/kg×5 times per week (on days 1, 2, 3, 4, and 5) for 2 weeks, p.o.) or without treatment. Tumor size was measured twice a week. Tumor volume was calculated using the following equation: Tumor volume (mm^3)=0.5×longer diameter×(shorter diameter)^2 in millimeter. The experiment was terminated when ≧50% mice had tumors larger than 15 mm (i.e., the longer diameter>15 mm).

H322 cells [4] = experiment: Cell-cycle progression and apoptosis by propidium iodide FACS analysis; format: cell-based, human; conditions: H322, 0.5 μM, 0, 3, 6 and 24 hours
Description: H322 cells were plated in a 6-well plate and incubated with RPMI1640 medium with 10% fetal bovine serum at 37° C. overnight. […] At the indicated time point, cells were harvested by trypsinization and fixed with cold 75% ethanol at 4° C. overnight. Cells were incubated with 1 μg/ml of propidium iodide and 5 μg/ml of RNase I at room temperature for 3 hours. The cell-cycle distribution and apoptotic cells (Sub-G0/G1) were measured by FACS analysis (BD Biosciences, San Joes, Calif.).

H322 cells [5] = conditions: from Ling et al., Mol Pharmacol 2007; cited from earlier work
H322 cells [6] = conditions: only two of the nine cell lines sensitive; cited from earlier work
H3255 cells [7] = conditions: only two of the nine cell lines sensitive; cited from earlier work
[8] = system: non-small cell lung (A549); conditions: cited from earlier work
mouse leukemia (P388) = conditions: cited from earlier work
colon (HT-29) = conditions: cited from earlier work

C/C=C1\NC(=O)[C@H](Cc2ccccc2)NC(=O)[C@@H](C(C)C)NC(=O)[C@@H]([C@@H](C)CC)NC(=O)[C@H](NC(=O)[C@H](NC(=O)[C@H](CCCN)NC(=O)[C@H]2CCCN2C(=O)[C@H](NC(=O)[C@@H](NC(=O)[C@@H](NC(=O)[C@H](NC(=O)CC[C@@H](C)CC)C(C)C)[C@@H](C)O)C(C)C)C(C)C)[C@@H](C)CC)[C@@H](C)OC(=O)[C@H](C(C)C)NC1=O [PM02734, (4S)-MeHex-D-Val-L-Thr-L-Val-D-Val-D-Pro-L-Orn-D-allo-Ile-cyclo(D-allo-Thr-D-allo-Ile-D-Val-L-Phe-Z-Dhb-L-Val)] gave a pIC50 (H460 cells) of under 5.30, a pIC50 (A549 cells) of 5.90 to 6.52 and a pIC50 (H322 cells [1]) of 5.90 to 6.52. For the same compound, the pIC50 (H1299 cells) was 5.55 to 5.70, the pIC50 (H1975 cells) was 5.55 to 5.70 and the pIC50 (H3255 cells [2]) was 5.90 to 6.52. For the same compound, the pIC50 (H661 cells) was 5.90 to 6.52, the pIC50 (H358 cells) was under 5.30 and the pIC50 (H1650 cells) was under 5.30. For the same compound, the “% treated vs. control tumor volume ratio (% T/C)” value [3] was 74%, the “apoptotic cells (Sub-G0/G1)” value (H322 cells [4]) was “apoptotic cell death in a time-dependent manner” and the “effect on cell-cycle progression” value (H322 cells [4]) was “cell cycle arrest at S-phase”.
For C#Cc1cccc(Nc2ncnc3cc(OCCOC)c(OCCOC)cc23)c1 [erlotinib, Erlotinib], the “effect on cell-cycle progression” value (H322 cells [5]) is listed as “G1/S phase arrest”, the “cell sensitivity to erlotinib” value (H322 cells [6]) is listed as “sensitive” and the “cell sensitivity to erlotinib” value (H3255 cells [7]) is listed as “sensitive”.
For Kahalalide F, the “in vitro antitumor activity” value [8] is listed as “micromolar activity”, the “in vitro antitumor activity” value (mouse leukemia (P388)) is listed as “micromolar activity” and the “in vitro antitumor activity” value (colon (HT-29)) is listed as “micromolar activity”.
